Assay results published in ChEMBL document CHEMBL1201862, “PubChem BioAssay data set” (2004).
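Cultured in 96-well plates, cells were exposed to test compound for 48 hours across five concentrations. At the GI50, growth is halved.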 Active and inactive are the calls of the source. Rule as the data show it: active = GI50 up to about 1.1 µM and inactive = higher. Residues, ends and D or L forms follow the SMILES beside them. *: point of attachment. OBn = c1ccc(CO*)cc1

Assays:
Assay in all cases: DTP human tumour cell line panel, 48 h
OVCAR-8 = tested on: OVCAR-8
KM12 = tested on: KM12
HCC 2998 = tested on: HCC 2998
MOLT-4 = tested on: MOLT-4
UACC-257 = tested on: UACC-257
DU-145 = tested on: DU-145
A549 = tested on: A549
RPMI-8226 = tested on: RPMI-8226
SK-MEL-2 = tested on: SK-MEL-2
NCI-H226 = tested on: NCI-H226
OVCAR-5 = tested on: OVCAR-5
HCT-116 = tested on: HCT-116
CAKI-1 = tested on: CAKI-1
SK-MEL-28 = tested on: SK-MEL-28
SR = tested on: SR
ACHN = tested on: ACHN
SNB-75 = tested on: SNB-75
CCRF-CEM = tested on: CCRF-CEM
OVCAR-4 = tested on: OVCAR-4
Malme-3M = tested on: Malme-3M

SMILES | GI50 (OVCAR-8) | GI50 (KM12) | GI50 (HCC 2998) | GI50 (MOLT-4) | GI50 (UACC-257) | GI50 (DU-145) | GI50 (A549) | GI50 (RPMI-8226) | GI50 (SK-MEL-2) | GI50 (NCI-H226) | GI50 (OVCAR-5) | GI50 (HCT-116) | GI50 (CAKI-1) | GI50 (SK-MEL-28) | GI50 (SR) | GI50 (ACHN) | GI50 (SNB-75) | GI50 (CCRF-CEM) | GI50 (OVCAR-4) | GI50 (Malme-3M)
O=C(c1ccc(Cl)cc1Cl)N(C(=O)N1CCC(c2ccccc2)CC1)c1ccccc1 | > 100 µM (inactive) | > 100 µM (inactive) | > 100 µM (inactive) | 17.8 µM (inactive) | 63.8 µM (inactive) | > 100 µM (inactive) | > 100 µM (inactive) | 47.9 µM (inactive) | > 100 µM (inactive) | > 100 µM (inactive) | > 100 µM (inactive) | 49.4 µM (inactive) | > 100 µM (inactive) | > 100 µM (inactive) | 24.3 µM (inactive) | > 100 µM (inactive) | > 100 µM (inactive) | 13.8 µM (inactive) | – | –
COC(=O)CCC12CCC(O1)c1ccccc12 (configuration not stated) | > 100 µM (inactive) | > 100 µM (inactive) | > 100 µM (inactive) | > 100 µM (inactive) | > 100 µM (inactive) | > 100 µM (inactive) | > 100 µM (inactive) | > 100 µM (inactive) | – | > 100 µM (inactive) | > 100 µM (inactive) | > 100 µM (inactive) | > 100 µM (inactive) | > 100 µM (inactive) | > 100 µM (inactive) | > 100 µM (inactive) | > 100 µM (inactive) | > 100 µM (inactive) | > 100 µM (inactive) | –
CSc1nc(N)c(NC2OC(CO)C(O)C2O)c(=O)[nH]1 (configuration not stated) | > 100 µM (inactive) | > 100 µM (inactive) | – | > 100 µM (inactive) | > 100 µM (inactive) | > 100 µM (inactive) | > 100 µM (inactive) | > 100 µM (inactive) | > 100 µM (inactive) | > 100 µM (inactive) | > 100 µM (inactive) | > 100 µM (inactive) | > 100 µM (inactive) | > 100 µM (inactive) | > 100 µM (inactive) | – | > 100 µM (inactive) | > 100 µM (inactive) | > 100 µM (inactive) | > 100 µM (inactive)
Nc1nc(N)c(/N=N/c2ccc(C(=O)O)c(O)c2)c(N)n1 | > 100 µM (inactive) | > 100 µM (inactive) | – | > 100 µM (inactive) | > 100 µM (inactive) | > 100 µM (inactive) | > 100 µM (inactive) | > 100 µM (inactive) | > 100 µM (inactive) | > 100 µM (inactive) | > 100 µM (inactive) | > 100 µM (inactive) | > 100 µM (inactive) | > 100 µM (inactive) | > 100 µM (inactive) | > 100 µM (inactive) | > 100 µM (inactive) | > 100 µM (inactive) | 18.5 µM (inactive) | > 100 µM (inactive)
c1csc(-c2cc(-c3ccsc3)c(-c3ccsc3)s2)c1 | > 100 µM (inactive) | > 100 µM (inactive) | 68.7 µM (inactive) | > 100 µM (inactive) | > 100 µM (inactive) | > 100 µM (inactive) | > 100 µM (inactive) | – | – | > 10 µM (inactive) | > 100 µM (inactive) | > 100 µM (inactive) | > 100 µM (inactive) | > 100 µM (inactive) | > 100 µM (inactive) | > 100 µM (inactive) | > 100 µM (inactive) | > 100 µM (inactive) | > 100 µM (inactive) | > 100 µM (inactive)
CC1(C)C(C(=O)OC(C#N)c2cccc(OCC(=O)OCc3ccccc3)c2)C1(C)C (configuration not stated) | 35.2 µM (inactive) | > 100 µM (inactive) | – | 18 µM (inactive) | 55.6 µM (inactive) | > 100 µM (inactive) | > 100 µM (inactive) | – | 20.4 µM (inactive) | > 100 µM (inactive) | > 100 µM (inactive) | 40.4 µM (inactive) | > 100 µM (inactive) | 63.2 µM (inactive) | 0.251 µM (active) | > 100 µM (inactive) | 41.5 µM (inactive) | 19.5 µM (inactive) | > 100 µM (inactive) | > 100 µM (inactive)
COc1cccc(C2c3cc4c(cc3OC(N3CCCC3)C2C)OCO4)c1 (configuration not stated) | 18.7 µM (inactive) | 6.01 µM (inactive) | 11.9 µM (inactive) | – | 12.1 µM (inactive) | 16.3 µM (inactive) | 9.2 µM (inactive) | 4.85 µM (inactive) | 5.48 µM (inactive) | – | 24.9 µM (inactive) | 4.76 µM (inactive) | 2.12 µM (inactive) | 8.79 µM (inactive) | 3.82 µM (inactive) | 8.79 µM (inactive) | 4.99 µM (inactive) | 0.513 µM (active) | – | –
CC(=O)Nc1c(C)cc2c(nc3n2CCC3OC(C)=O)c1[N+](=O)[O-] (configuration not stated) | > 100 µM (inactive) | > 100 µM (inactive) | – | > 100 µM (inactive) | > 100 µM (inactive) | > 100 µM (inactive) | > 100 µM (inactive) | > 100 µM (inactive) | > 100 µM (inactive) | > 100 µM (inactive) | > 100 µM (inactive) | > 100 µM (inactive) | > 100 µM (inactive) | > 100 µM (inactive) | > 100 µM (inactive) | > 100 µM (inactive) | > 100 µM (inactive) | > 100 µM (inactive) | > 100 µM (inactive) | > 100 µM (inactive)
C/C(=C\CNc1ncnc2[nH]c(Cl)nc12)CO | > 100 µM (inactive) | > 100 µM (inactive) | > 100 µM (inactive) | > 100 µM (inactive) | > 100 µM (inactive) | > 100 µM (inactive) | > 100 µM (inactive) | > 100 µM (inactive) | – | > 100 µM (inactive) | > 100 µM (inactive) | > 100 µM (inactive) | > 100 µM (inactive) | > 100 µM (inactive) | > 100 µM (inactive) | > 100 µM (inactive) | > 100 µM (inactive) | > 100 µM (inactive) | > 100 µM (inactive) | > 100 µM (inactive)
Clc1sc(Cl)c2c1[C@H](Cl)C[C@@H]2Cl | 18.4 µM (inactive) | 25.6 µM (inactive) | 15.2 µM (inactive) | 50.2 µM (inactive) | 24.3 µM (inactive) | 27.5 µM (inactive) | 21.2 µM (inactive) | – | 22.5 µM (inactive) | 19.8 µM (inactive) | 29.2 µM (inactive) | 4.85 µM (inactive) | 20.2 µM (inactive) | 17.5 µM (inactive) | 58.9 µM (inactive) | 33.2 µM (inactive) | 20 µM (inactive) | 6.82 µM (inactive) | 23.6 µM (inactive) | 15 µM (inactive)
CC1(C)CC(=O)C2=C(C1)c1c(ccc3ccccc13)NC2c1cn(Cc2ccc(Cl)cc2)c2ccccc12 (configuration not stated) | > 100 µM (inactive) | > 100 µM (inactive) | – | 58.1 µM (inactive) | 94.2 µM (inactive) | > 100 µM (inactive) | > 100 µM (inactive) | > 100 µM (inactive) | > 100 µM (inactive) | – | 36.5 µM (inactive) | 9.35 µM (inactive) | 13.3 µM (inactive) | – | 11.2 µM (inactive) | 61.9 µM (inactive) | > 100 µM (inactive) | 55.7 µM (inactive) | > 100 µM (inactive) | –
O=C1c2c(ccc3c2CCCC3)CC1Cc1ccc2c(c1)CCCC2 (configuration not stated) | 88.3 µM (inactive) | 59.2 µM (inactive) | 34.6 µM (inactive) | 35 µM (inactive) | 28.3 µM (inactive) | 83.4 µM (inactive) | 41.5 µM (inactive) | 21.6 µM (inactive) | 47.3 µM (inactive) | > 100 µM (inactive) | > 100 µM (inactive) | 25.5 µM (inactive) | – | > 100 µM (inactive) | 9.08 µM (inactive) | 80.4 µM (inactive) | 4.68 µM (inactive) | 21.3 µM (inactive) | 28.8 µM (inactive) | 54.8 µM (inactive)
Cn1c(-c2ccc[se]2)ccc1-c1ccc(C=O)[se]1 | 6.98 µM (inactive) | > 100 µM (inactive) | 2.47 µM (inactive) | 7.43 µM (inactive) | 0.796 µM (active) | 29.4 µM (inactive) | 23.3 µM (inactive) | 1.03 µM (active) | 65.3 µM (inactive) | 0.865 µM (active) | 0.0418 µM (active) | 0.59 µM (active) | 0.195 µM (active) | 42.1 µM (inactive) | 7.45 µM (inactive) | 46.6 µM (inactive) | 23 µM (inactive) | 0.859 µM (active) | 0.247 µM (active) | –
O=c1c2cc(I)ccc2nc(-c2cccs2)n1/N=C/c1ccccc1 | > 100 µM (inactive) | > 100 µM (inactive) | > 100 µM (inactive) | – | 79.1 µM (inactive) | > 100 µM (inactive) | > 100 µM (inactive) | > 100 µM (inactive) | 0.536 µM (active) | > 100 µM (inactive) | > 100 µM (inactive) | > 100 µM (inactive) | > 100 µM (inactive) | > 100 µM (inactive) | 10.1 µM (inactive) | > 100 µM (inactive) | > 100 µM (inactive) | > 100 µM (inactive) | > 100 µM (inactive) | –
NC(CCC(=O)OCc1ccccc1)C(=O)NC(CCC(=O)OCc1ccccc1)C(=O)O (configuration not stated) (H-Glu(OBn)-Glu(OBn)-OH; configuration not given here) | > 100 µM (inactive) | > 100 µM (inactive) | > 100 µM (inactive) | > 100 µM (inactive) | – | > 100 µM (inactive) | > 100 µM (inactive) | > 100 µM (inactive) | – | > 100 µM (inactive) | > 100 µM (inactive) | > 100 µM (inactive) | > 100 µM (inactive) | > 100 µM (inactive) | > 100 µM (inactive) | > 100 µM (inactive) | > 100 µM (inactive) | > 100 µM (inactive) | > 100 µM (inactive) | > 100 µM (inactive)
